The values below come from patent US7968587B2, “Tetrahydrocyclopenta[b]indole compounds as androgen receptor modulators” (priority 2006, dated 2011).

The experiment concerns castrated (GDX) male Wistar rats. Description: In vivo model of efficacy and selectivity (castrated rat; LA, SV wet weight, PALP activity). The following applies: po, two weeks; for LA weight % Efficacy versus control (GDX) (ANOVA, p < 0.05): levator ani wet weight normalized to body weight; for PALP % Efficacy versus control (GDX) (ANOVA, p < 0.05): periosteal alkaline phosphatase activity, tibia; for SV weight % Efficacy verses control (sham) (ANOVA, p < 0.05): seminal vesicle wet weight normalized to body weight. The method, then:
Male Wistar rats (12 weeks old) are castrated (gonadectomized or “GDX”) according to approved procedures (Charles River Labs) and allowed to waste for eight - 10 weeks. Age-matched sham-operated mice are also prepared. (Sham-operated mice are animals that have been exposed to the same surgical procedures as castrated animals except their testes are not removed.) Animals are housed in a temperature-controlled room (24° C.) with a reversed 12 hour light/dark cycle (dark 10:00/22:00) and water and food are available ad libitum.
Test compounds are administered to the animals using conventional vehicles. For example, 1% sodium carboxymethylcellulose (CMC)+0.25% Tween 80 in sterile H2O can be used for oral administration and 6% ethyl-alcohol (EtOH)+94% cyclodexitrane (CDX) can be used for subcutaneous injections. Sham operated rats treated with vehicle alone are used as a treatment positive controls whereas castrated rats treated only with vehicle are used as treatment negative control.
Test animals are dosed over a two week timeframe, orally or subcutaneously, with, for example, 0.3, 1, 3, 10 or 30 mg/kg/day of a compound of the present invention. After the two-week treatment, as an indicator of activity, the wet weight of the Levator Ani (LA) muscle in the test group is determined and compared to the wet weight of the Levator Ani from the castrated, vehicle-only control group. The wet weights of the muscle obtained in both the test group and the vehicle-only group are normalized relative to total body weight. As an indicator of tissue selective activity, the wet weight of the seminal vesicle (SV) from test animals is similarly compared to the wet weight of the seminal vesicles from the sham, vehicle-only group. Again, the wet weights of the vesicles obtained from both the test group and the vehicle-only group are normalized relative to total body weight.
In addition to the Levator Ani wet weight, the left tibia of rats are isolated during necropsy and after uncapping of the epiphysis, the soft tissue surrounding the bone is carefully removed. This sample is then placed in a solution containing 0.2% collagenase in Tris Buffer (pH 7.5). The resulting enzymatic excision of the outer periosteal layer is subjected immediately to an assay to determine alkaline phosphatase activity, an indicator of osteoblast/bone anabolic activity. Briefly, 30 μL of sample is placed in an epitube containing 200 μL of para-nitrophenyl phosphate (PNPP) substrate buffer (Pierce Cat # 37621). Purified alkaline phosphatase (Sigma Cat. # P4252) is used to make a standard curve, and the samples are read in a plate reader at Abs405 to determine periosteal alkaline phosphatase (PALP) activity. The results obtained from both the test group and the vehicle only group may be normalized relative to total body weight.
Percent Efficacy (% Eff.) values may be determined as follows: % Eff.=((Wet weight of LA or SV or PALP activity in test animal/test animal total body weight)/(Wet weight of LA or SV or PALP activity in control animal/control animal total body weight))×100.

As for `CN(C)S(=O)(=O)N[C@@H]1Cc2c(n(Cc3cccc(F)n3)c3ccc(C#N)cc23)C1` [Example 74, (R)-N′-[7-Cyano-4-(6-fluoro-pyridin-2-ylmethyl)-1,2,3,4-tetrahydro-cyclopenta[b]indol-2-yl]-N,N-dimethylsulfamide], under “3 mg/Kg/d”, the “LA weight % Efficacy versus control (GDX) (ANOVA, p < 0.05)” value is given as 134%; the “PALP % Efficacy versus control (GDX) (ANOVA, p < 0.05)” value turned out to be 95%; the “SV weight % Efficacy verses control (sham) (ANOVA, p < 0.05)” value came out at 6%. For the same compound, where the note is “10 mg/Kg/d”, the “LA weight % Efficacy versus control (GDX) (ANOVA, p < 0.05)” value was determined as 195%; the “PALP % Efficacy versus control (GDX) (ANOVA, p < 0.05)” value turned out to be 116%; the “SV weight % Efficacy verses control (sham) (ANOVA, p < 0.05)” value worked out at 8%. Under “30 mg/Kg/d”, the “LA weight % Efficacy versus control (GDX) (ANOVA, p < 0.05)” value was 186%; the “PALP % Efficacy versus control (GDX) (ANOVA, p < 0.05)” value came out at 107%; the “SV weight % Efficacy verses control (sham) (ANOVA, p < 0.05)” value is on record as 14%.
